Assay: Method of measuring viscosity (tuning fork type vibration mode viscometer)
Assay type: physicochemical
Description: Measurement is conducted using a tuning fork type vibration mode viscometer (VIBRO NISCOMETERCJV5000 (manufactured by A&D Company Limited) is typically used in this embodiment). An oily skin care agent heated previously at about 100° C. is gradually cooled to room temperature, and viscosity at the predetermined temperature is measured.
“Viscosity of a diamide derivative” in the present invention was measured by the same measuring method as used for the viscosity of an oily skin care agent in the above mentioned first embodiment.

viscosity at 36° C.: 1000 mPa·s
SMILES: CCCCCCCCCCCCCCCCOCC(O)CN(CCO)C(=O)CCCCCCCCCCCCCCC (stereo not shown) [Monoamide of the formula (III)]
